Measurements: publication PMC10563230, “Unveiling poly(rC)-binding protein 2 as the target protein for curcusone C against prostate cancer: mechanism validation through click chemistry-activity based proteomics profiling approach” (BMC Cancer, 2023)

Key:
[1] = test system: human prostate carcinoma PC-3 cells; assay: CCK-8 cytotoxic activity assay, PC-3; assay type: cell-based; settings: CCK-8, 48 h
Protocol: (§1) Human prostate carcinoma PC-3 cells and human proximal tubular HK-2 cells purchased from Chinese National Collection of Authenticated Cell Cultures were cultured in RPMI 1640 medium containing FBS (10%, Gibco, CA, USA) and Penicillin-Streptomycin (1%, Gibco, CA, USA). The cells were cultured at a concentration of 5% CO2 and a temperature of 37 ℃, and the medium was changed every two days.
(§2) CCK-8 assay was used to evaluate the proliferation and cytotoxicity of Curcusone C and its derivatives. Cells of 100 µL with a concentration of 5000 cells/mL to 8000 cells/mL were inoculated in 96-well plates for culturing 24 h, and the blank well was added with equal volume medium. After cell adhesion, 10 µL Curcusone C solution or its derivatives were added to each well of the experimental groups except the blank well to the final concentration of drug was 1 mM, […] respectively, and 10 µL DMSO (drug solvent) was added to the control well. The liquid was discarded 48 h later, and 100 µL medium and 10 µL CCK-8 reagent (Beyotime, Shanghai, China) were added to each well. After incubation for 0.5 to 1 h, the absorbance valued at 450 nm was measured and the cell inhibition rate or survival rate was calculated. Cell inhibition rate= […].

[2] = test system: Bax, Bcl-2, caspase-3 and PARP proteins in PC-3 cells; assay: Western blot of mitochondrial apoptosis pathway proteins in PC-3 cells; assay type: cell-based, human; settings: increasing concentration
Protocol: (§3) The culture medium containing PC-3 cells was discarded, lysis buffer was added, and the cells were collected with a scraper. The sample is then transferred to a centrifuge tube and the cells are fully lysed. Centrifuge the tube at 12,000 g and 4 ℃ for 10 min. After taking the supernatant, mix with the protein: protein loading buffer (v/v) = 5:1 ratio, and boil at 95 ℃ for 10 min to fully denaturate the protein. BCA protein concentration assay kit (Beyotime, China) was used to quantify the protein of experimental samples. Equal amounts of protein (30 µg) were loaded onto 7.5-12.5% SDS-PAGE gel. After adding the sample, the target protein was separated at 140 V constant pressure and was transferred under the condition of 250 mA constant current and the highest voltage. The transferred PVDF membrane (Thermo Fisher Scientific, MA, USA) was sealed in 5% skim milk (BIOFRox, Germany) for 2 h. The membrane was incubated in the antibody diluent of the corresponding protein at 4 ℃ overnight in a shaker and washed with TBST (Gibco, USA) for three times. Then it was placed in secondary antibody diluent for incubating 1.5 h at 4 ℃ in a shaker and washed again for three times. Finally, appropriate amount of ECL luminescent solution was taken to infiltrate PVDF membrane for development, and the strip was exposed and recorded.

[3] = test system: PCBP2, FHL3, TGF-β1, phosphorylated Smad2 and phosphorylated Smad7; assay: Immunohistochemistry of tumor tissues of nude mice; assay type: in vivo, Balb/C nude mice
Protocol: Paraffin sections underwent successively dewaxing to water, antigen repair, blocking of endogenous peroxidase, serum blocking, primary antibody incubation, secondary antibody reaction, DAB color development, counterstaining of nuclei, dehydration and sealing, image acquisition and analysis, and microscopic examination.

[4] = test system: human proximal tubular HK-2 cells; assay: CCK-8 cytotoxic activity assay, HK-2 normal cells; assay type: cell-based; settings: HK-2, 48 h, CCK-8, 48 h
Protocol: as §1, §2

PCBP2 [5] = assay: DARTS (pronase digestion of PCBP2 in PC-3 protein extract); assay type: binding, human; settings: 100 µM
Protocol: PC-3 cells protein was extracted, and the protein concentration was adjusted to 5 mg/mL and was packed into 99 µL/tube. Then, 10 mM and 5 mM Curcusone C solution of 1 µL was added to protein mixture of 99 µL and gently shaken at room temperature for 1 h. After the compounds were completely incubated, the samples were divided into one part every 20 µL, and 2 µL pronase solution with a certain concentration was added. The control group was added with 2 µL TNC buffer and incubated at room temperature for 30 min to ensure the same digestion time in each group. Digestion was terminated with 20X protease inhibitor complex and incubated on ice for 10 min. Finally, 6 µL 5X protein loading buffer was added to each sample and boiled at 100 ℃ for 10 min to fully denaturate the protein. The samples were centrifuged at 1100 g and 4 ℃ for 1 min and were performed western blot.

PCBP2 [6] = assay: Western blot of PCBP2 in PC-3 cells; assay type: cell-based, human; settings: different concentrations
Protocol: as §3

[7] = Tolerance and organ toxicity in tumor-bearing nude mice (body weight, HE staining); assay type: in vivo
Protocol: (§4) PC-3 cells in logarithmic growth phase were collected and the total number of cells required was calculated. Cells were re-suspended in a suitable volume of PBS and added to matrigel (PBS: matrigel = 1:1(v/v)) at a concentration of 5 × 10^6 cells/mL for subcutaneous inoculation on the right side of Balb/C nude mice. On day 0, 0.1 mL 5 × 10^6 cells/mL cell suspension (PBS: matrigel = 1:1(v/v)) was subcutaneously inoculated on the right neck and back of each nude mouse except the mice of normal group, to establish PC-3 subcutaneously transplanted tumor model. On day 8 after cell inoculation, the tumor grew to an average volume of 140.3 mm^3. The groups were randomly divided into normal group (Normal), control group (Control), methotrexate group (MTX 4.8 mg/kg), low dose group (C 5 mg/kg), medium dose group (C 10 mg/kg) and high dose group (C 20 mg/kg). Except for 3 mice in the normal group, 6 mice in the other groups were administered twice a week via tail vein (BIW). After 2 weeks of dosing, the dose was changed to once a day (QD). After 2 days of QD administration, tail vein injection was changed to intraperitoneal administration, and QD administration was continued for 5 days. Pharmacodynamic activity was evaluated based on tumor inhibition rate (TGITV) and tolerance was evaluated based on animal weight change and death. At the end of the experiment, all the animals were bled under isoflurane anesthesia and the serum was extracted. The heart, liver, spleen, lung and kidney of each nude mouse were collected and fixed in 4% paraformaldehyde or quick-frozen in liquid nitrogen and stored at -80 ℃ for tissue protein extraction.
(§5) Tissue samples were embedded, sectioned, dewaxed, stained, dehydrated and transparent, and sealed with neutral gum. After drying in a ventilated place, observing and recording under a microscope, the sections were stored at room temperature.

[8] = test system: PC-3 subcutaneously transplanted tumor; assay: PC-3 subcutaneously transplanted tumor model in nude mice; assay type: in vivo, Balb/C nude mice; settings: for tumor weight: last day of administration, control group 2885.5 ± 432.0 mg
Protocol: as §4, §5
Mouse tumor tissues were fixed with 4% PFA and washed with PBS, and TUNEL staining was performed with TUNEL apoptosis detection kit according to manufacturer’s instructions. Cell nucleus were stained with DAPI, slides were rinsed and imaged with fluorescence microscopy, and finally apoptosis was analyzed with image analyzer.

PCBP2 protein = PCBP2 protein (Homo sapiens, UniProt Q15366); assay: SPR binding to immobilized PCBP2 (CM5 chip); settings: analyte 31.25–500 µM
Protocol: The PCBP2 protein was first immobilized on the CM5 microarray using […], and then the analyte was run using a multi-cycle method. Briefly, small molecules were diluted to different concentrations with Running Buffer, and injected into channel Fc1-Fc2 at a flow rate of 30 µl/min. The association period was 60 s, and then dissociated for 90 s. The association and dissociation processed in the Running Buffer.

PCBP2 protein, sequence (Q15366 whole entry): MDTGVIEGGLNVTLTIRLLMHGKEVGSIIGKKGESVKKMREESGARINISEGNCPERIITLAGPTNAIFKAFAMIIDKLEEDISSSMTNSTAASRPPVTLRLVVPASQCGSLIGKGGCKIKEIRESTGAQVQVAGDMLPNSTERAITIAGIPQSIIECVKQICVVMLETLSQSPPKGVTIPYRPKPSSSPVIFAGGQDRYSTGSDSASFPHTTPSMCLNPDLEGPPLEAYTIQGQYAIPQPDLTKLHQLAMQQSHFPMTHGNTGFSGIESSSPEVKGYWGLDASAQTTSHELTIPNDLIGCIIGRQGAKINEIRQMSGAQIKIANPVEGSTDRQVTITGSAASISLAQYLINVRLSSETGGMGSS

For C=C1CC[C@H](C(=C)C)[C@H]2C=C(C)C(=O)C3=C(C(=O)[C@](C)(O)C3)[C@H]12 [Curcusone C], the IC50 ([1]; PC-3, 48 h) was ~3.24 µM, the “level of Bcl-2 in PC-3 cells” value [2] was “decreased gradually” and the “relative expression levels of Bax, cleaved caspase-3 and cleaved PARP in PC-3 cells” value [2] was “increased gradually”. For the same compound, the “changes of TGF-β1, P-Smad2 and P-smad7 proteins in tumor tissues” value ([3]; IHC) was “downward trend”, the “content of FHL3 protein in tumor tissues” value ([3]; IHC, 20 mg/kg) was “higher than that in Control group” and the “expression of PCBP2 protein in tumor tissues” value ([3]; IHC, 5, 10, 20 mg/kg) was “decreased with the increase of drug concentration”. For the same compound, the IC50 [4] was > 20 µM, the “amount of enzymolysis by pronase of PCBP2” value (PCBP2 [5]) was “lower than that of control group” and the “relative content of PCBP2 in PC-3 cells” value (PCBP2 [6]) was “decreased with the increase of drug concentration”. For the same compound, the “HE staining of lung tissue” value ([7]; 20 mg/kg) was “no interstitial thickening of lung tissue”, the “body weight of nude mice” value ([7]; 20 mg/kg) was “weight loss due to intolerance at the initial stage of drug administration” and the “HE staining of renal tissue” value ([7]; after administration of Curcusone C) was “no obvious abnormality”. The “HE staining of heart, liver, spleen, lung and kidney” value ([7]; compared with the normal group) was “no significant changes”, the “TUNEL apoptotic signal in tumor tissue” value ([8]; 5 mg/kg) was “no apoptotic cell signal” and the tumor inhibition rate ([8]; 5 mg/kg) was 18%. For the same compound, the tumor weight ([8]; 5 mg/kg) was 2356.7 ± 445.7 mg, the “TUNEL apoptotic signal in tumor tissue” value ([8]; 10 mg/kg) was “red marker signal” and the tumor inhibition rate ([8]; 10 mg/kg) was 33%. For the same compound, the tumor weight ([8]; 10 mg/kg) was 1925.6 ± 242.1 mg, the “HE staining of tumor tissue” value ([8]; 20 mg/kg) was “nuclear pyknosis and lysis” and the “TUNEL apoptotic signal in tumor tissue” value ([8]; 20 mg/kg) was “most obvious apoptotic signal”. For the same compound, the tumor inhibition rate ([8]; 20 mg/kg) was “about 39%”, the tumor weight ([8]; 20 mg/kg) was 1759.6 ± 448.7 mg and the Kd (PCBP2 protein) was 3150 µM.
Work on C=C1CC[C@H](C(=C)C)C2C=C(C)C(=O)C3=C(C(=O)[C@](C)(Cl)C3)C12 (stereo partly shown) [Derivative C-1] yielded an IC50 ([1]; PC-3, 48 h) of 3.74 ± 0.4 µM.
For C=C(C)[C@@H](CCC(=O)CN(CC)CC)c1cc2c(c(=O)c(C)c1)C[C@@](C)(O)C2=O [Derivative C-11], the IC50 ([1]; PC-3, 48 h) was > 20 µM.
With C=C(C)[C@@H](CCC(=O)COC(C)=O)c1cc2c(c(=O)c(C)c1)C[C@@](C)(O)C2=O [Derivative C-10] the IC50 ([1]; PC-3, 48 h) was > 20 µM.
For C=C(COC(=O)/C=C/C=C/C)[C@H]1CCC(O)(CCl)C2C3=C(C[C@@](C)(O)C3=O)C(=O)C(C)=CC21 (stereo partly shown) [Derivative C-6], the IC50 ([1]; PC-3, 48 h) was 1.81 ± 0.18 µM.
For C#CCCCC(=O)O[C@]1(C)CC2=C(C1=O)C1C(=C)CC[C@H](C(=C)C)C1C=C(C)C2=O (stereo partly shown) [Positive probes], the IC50 ([1]; PC-3, 48 h) was 7.34 ± 0.2 µM.
With CN(Cc1cnc2nc(N)nc(N)c2n1)c1ccc(C(=O)N[C@@H](CCC(=O)O)C(=O)O)cc1 [Methotrexate, reference compound] the IC50 ([1]; PC-3, 48 h) was 0.89 ± 0.22 µM, the IC50 [4] was ~3.21 µM and the “HE staining of kidney (glomerulus in the renal cortex)” value ([7]; 4.8 mg/kg) was “severe pyknosis”. The “HE staining of lung tissue” value ([7]; 4.8 mg/kg) was “significant pulmonary interstitial thickening and pneumonic pathological manifestations”, the “HE staining of tumor tissue” value ([8]; 4.8 mg/kg) was “nuclear pyknosis and lysis” and the “TUNEL apoptotic signal in tumor tissue” value ([8]; 4.8 mg/kg) was “most obvious apoptotic signal”. It also gave a tumor inhibition rate ([8]; 4.8 mg/kg) of 48% and a tumor weight ([8]; 4.8 mg/kg) of 1503.4 ± 243.0 mg.
C=C(C)[C@H]1CCC(O)(CCl)C2C3=C(C[C@@](C)(O)C3=O)C(=O)C(C)=CC21 (stereo partly shown) [Derivative C-2] showed an IC50 ([1]; PC-3, 48 h) of 6.4 ± 0.38 µM.
With C=C(COc1ccc([N+](=O)[O-])cc1)[C@@H](CCC(=O)COc1ccc([N+](=O)[O-])cc1)c1cc2c(c(=O)c(C)c1)C[C@@](C)(O)C2=O [Derivative C-12] the IC50 [1] was > 20 µM.
C=C(C)C(=O)OCC(=C)[C@H]1CCC(O)(CCl)C2C3=C(C[C@@](C)(O)C3=O)C(=O)C(C)=CC21 (stereo partly shown) [Derivative C-5] gave an IC50 ([1]; PC-3, 48 h) of 2.05 ± 0.96 µM.
In the case of C=C(COC(C)=O)[C@H]1CCC(O)(CCl)C2C3=C(C[C@@](C)(O)C3=O)C(=O)C(C)=CC21 (stereo partly shown) [Derivative C-8], the IC50 ([1]; PC-3, 48 h) is reported as 9.49 ± 0.17 µM.
For C=C(COC(=O)CC(=O)OC)[C@H]1CCC(O)(CCl)C2C3=C(C[C@@](C)(O)C3=O)C(=O)C(C)=CC21 (stereo partly shown) [Derivative C-9], the IC50 ([1]; PC-3, 48 h) was 5.97 ± 1.16 µM.
With C=C(C=O)[C@H]1CCC(O)(CCl)C2C3=C(C[C@@](C)(O)C3=O)C(=O)C(C)=CC21 (stereo partly shown) [Derivative C-4] the IC50 ([1]; PC-3, 48 h) was 2.35 ± 0.37 µM.
In the case of C=C(CO)[C@H]1CCC(O)(CCl)C2C3=C(C[C@@](C)(O)C3=O)C(=O)C(C)=CC21 (stereo partly shown) [Derivative C-7], the IC50 ([1]; PC-3, 48 h) is reported as 16.3 ± 3.25 µM.
C=C(CCl)[C@H]1CCC(O)(CCl)C2C3=C(C[C@@](C)(O)C3=O)C(=O)C(C)=CC21 (stereo partly shown) [Derivative C-13] gave an IC50 [1] of 2.96 ± 0.37 µM.
For C=C(C)[C@H]1CCC(O)(CI)C2C3=C(C[C@@](C)(O)C3=O)C(=O)C(C)=CC21 (stereo partly shown) [Derivative C-3], the IC50 ([1]; PC-3, 48 h) was 10.3 ± 0.58 µM.
